Reference: patent publication US11999676B2, “Vesicular monoamine transporter-2 ligands and their use in the treatment of psychostimulant abuse” (priority 2016, dated 2024)
Like-named read-outs stand apart in the source and are kept apart here.

Tests used:
in vitro [1] = settings: female, Sprague-Dawley, rat, microsomes, pH 7.4, Microsomal stability assays: Clearance
[2] = Microsomal stability assay, rat liver microsomes; settings: female, Sprague-Dawley, rat, pH 7.4, Microsomal stability assays: Half-life
VMAT2 [3] = target: T1, VMAT2 (Rattus norvegicus (Rat), UniProt Q01827); test: [3H]Dopamine ([3H]DA) uptake assay, vesicular preparation; assay type: biochemical
[4] = Microsomal stability assay, human liver microsomes; settings: for half-life at 0.08 µM: both, human, pH 7.4, Microsomal stability assays: Half-life
Description: (§1) Each plate holds triplicate samples of two controls (0.4 mM) and up to 14 compounds (0.08 mM) in rat and human liver microsomes. Aliquots of each well of the plate (175 μl of each well) were transferred from the master plate into 5 assay plates. For 0-hr time point, pre-cooled (4° C.) internal standard (437.5 μL, 2 μM caffeine in methanol) was added to the first plate before the reaction starts. NADPH regenerating system solution A (6.05 ml, Fisher Scientific, #NC9255727) was combined with NADPH regenerating system solution B (1.21 ml, Fisher Scientific, #NC9016235) in potassium phosphate buffer (15.8 ml, 0.1 M, pH 7.4, 37° C.). The resulting NADPH solution (43.8 μl) was added to each well of all the 96-well assay plates and mixed with pipette briefly making the final protein and compound concentrations respectively: 0.5 mg/ml, 0.08 μM (0.4 μM for controls). Plates were sealed, and all plates except the 0-hr plate were incubated at 37° C., shaken at a speed of 60 rpm. A single assay plate was tested at each time point: 0.5 hr, 1 hr, 2 hr, and 4 hr. At each time point, 437.5 μL of pre-cooled internal standard was added each well of the plate to quench the reaction. […] 120 μl supernatant was transferred to a 96-well plate, centrifuged again and analyzed by UPLC-MS (Waters Inc., Milford, MA). The compounds and internal standard were detected by selected ion recording (SIR).
(§2) The amount of material was measured as a ratio of peak area to the internal standard and graphed. Using the slope from the initial linear portion of this curve, the degradation rate constant is calculated using equation [1].

in vitro [5] = settings: both, human, microsomes, pH 7.4, Microsomal stability assays: Clearance
Description: as §1, §2

hERG channel = hERG channel (Homo sapiens (Human), UniProt Q12809); test: [3H]Dofetilide binding assay, HEK-293 cell membrane preparation
VMAT2 [6] = target: T1, VMAT2; settings: rat brain synaptic vesicles; read-out: [3H]DTBZ binding (Ki) VMAT2
[7] = [3H]DA uptake, rat, read-out: VMAT2 (rat) Inhibition: Mean Ki ± Standard Deviation
[8] = [3H]dofetilide, HEK-293 cell membranes, read-out: hERG Binding: Mean Ki ± Standard Deviation
[9] = rat striatal synaptic vesicles, read-out: [3H]DA uptake (Ki) VMAT2

hERG channel, sequence (Q12809 whole entry): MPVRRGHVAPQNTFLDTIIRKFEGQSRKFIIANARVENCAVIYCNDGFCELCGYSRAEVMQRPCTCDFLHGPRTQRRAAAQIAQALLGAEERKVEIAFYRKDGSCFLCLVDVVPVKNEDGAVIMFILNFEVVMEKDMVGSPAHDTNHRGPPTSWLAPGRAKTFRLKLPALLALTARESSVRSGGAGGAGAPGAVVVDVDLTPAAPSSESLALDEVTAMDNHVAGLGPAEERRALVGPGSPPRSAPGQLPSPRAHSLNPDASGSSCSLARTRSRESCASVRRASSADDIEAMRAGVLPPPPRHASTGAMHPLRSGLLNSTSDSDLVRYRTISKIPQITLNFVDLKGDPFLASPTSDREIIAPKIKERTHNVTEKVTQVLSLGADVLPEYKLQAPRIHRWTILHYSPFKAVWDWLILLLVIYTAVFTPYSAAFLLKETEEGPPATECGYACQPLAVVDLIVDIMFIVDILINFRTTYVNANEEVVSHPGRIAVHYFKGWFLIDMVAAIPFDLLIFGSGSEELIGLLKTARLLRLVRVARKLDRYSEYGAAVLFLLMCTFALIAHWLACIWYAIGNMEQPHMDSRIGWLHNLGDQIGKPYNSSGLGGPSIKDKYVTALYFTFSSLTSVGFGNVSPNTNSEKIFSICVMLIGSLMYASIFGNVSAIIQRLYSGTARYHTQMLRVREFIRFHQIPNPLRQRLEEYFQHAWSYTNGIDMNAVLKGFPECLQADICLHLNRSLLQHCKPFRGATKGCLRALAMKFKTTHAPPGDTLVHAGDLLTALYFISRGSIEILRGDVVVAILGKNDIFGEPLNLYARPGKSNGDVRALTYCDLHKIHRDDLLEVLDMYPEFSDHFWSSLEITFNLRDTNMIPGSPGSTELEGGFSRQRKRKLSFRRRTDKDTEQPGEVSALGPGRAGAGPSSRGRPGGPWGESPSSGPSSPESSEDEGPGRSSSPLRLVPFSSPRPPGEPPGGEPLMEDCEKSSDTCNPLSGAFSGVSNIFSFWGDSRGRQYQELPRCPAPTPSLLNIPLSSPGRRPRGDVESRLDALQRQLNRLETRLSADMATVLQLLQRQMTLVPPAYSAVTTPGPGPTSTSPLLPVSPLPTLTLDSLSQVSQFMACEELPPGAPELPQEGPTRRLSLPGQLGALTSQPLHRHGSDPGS

| Compound | Ki (VMAT2 [6]) [nM] | Ki (VMAT2 [3]; [9]) [nM] | other results |
| --- | --- | --- | --- |
| FCC(Cc1ccc(F)cc1)NCCCc1ccncc1 (stereo not shown) [Compound 142] | – | – | CLint scaled at 0.08 µM (in vitro [1]): 38.3 mL/min/kg; half-life at 0.08 µM ([2]; liver microsomes): 30 min; Ki (VMAT2 [3]; [7]): 117 ± 18.7 nM |
| Nc1ccc(CC(CF)NCCCc2ccc(F)cc2)cc1 (stereo not shown) [Compound 80, [N-3-(4-fluorophenyl)-propan-1-yl]-3-(4-aminophenyl)-1-fluoro-2-propylamine] | – | – | half-life at 0.08 µM ([4]; pooled liver microsomes): 42 min; CLint scaled at 0.08 µM (in vitro [5]): 29.5 mL/min/kg |
| CC(Cc1ccc(NC=O)cc1)N(C=O)CCCc1ccccc1 (stereo not shown) [Compound 76] | – | – | CLint scaled at 0.08 µM (in vitro [1]): 56 mL/min/kg; half-life at 0.08 µM ([2]; liver microsomes): 48 min |
| O=CNc1ccc(CC(CF)NCCCc2ccc(F)cc2)cc1 (stereo not shown) [Compound 73] | – | – | CLint scaled at 0.08 µM (in vitro [1]): 43.7 mL/min/kg; half-life at 0.08 µM ([2]; liver microsomes): 66 min |
| FCC(Cc1ccc(F)cc1)NCCCc1ccnc2ccccc12 (stereo not shown) [Compound 149] | – | – | Microsomal stability assays: Half-life [4]: 6 min; CLint scaled at 0.08 µM (in vitro [5]): 162 mL/min/kg |
| Fc1ccc(CCCNC(Cc2ccc(F)cc2)C(F)F)cc1 (stereo not shown) [Compound 82] | – | – | half-life at 0.08 µM ([4]; pooled liver microsomes): 48 min; CLint scaled at 0.08 µM (in vitro [5]): 26.3 mL/min/kg |
| OCC(Cc1ccc(F)cc1)NCCCn1cccn1 (stereo not shown) [Compound 130] | – | – | half-life at 0.08 µM ([4]; pooled liver microsomes): 36 min; CLint scaled at 0.08 µM (in vitro [5]): 37.3 mL/min/kg; Ki (VMAT2 [3]; [7]): 634 ± 195 nM |
| O=[N+]([O-])c1ccc(CCCNC(CF)Cc2ccc(F)cc2)cc1 (stereo not shown) [Compound 123] | – | – | Ki (hERG channel): 223 ± 199 nM; half-life at 0.08 µM ([4]; pooled human liver microsomes): 72 min; CLint scaled at 0.08 µM (in vitro [5]): 18.1 mL/min/kg |
| O=CNc1ccc(CC(CF)NCCCc2ccc(F)cc2)cc1 (stereo not shown) [Compound 72] | – | – | Ki (hERG channel; [8]): 516 ± 63.6 nM; half-life at 0.08 µM ([4]; pooled liver microsomes): 48 min; CLint scaled at 0.08 µM (in vitro [5]): 26.5 mL/min/kg; Ki (VMAT2 [3]; [7]): 16.4 ± 2.89 nM |
| FCC(Cc1ccc(-c2cncnc2)cc1)NCCCc1ccc(F)cc1 (stereo not shown) [Compound 69] | – | – | CLint scaled at 0.08 µM (in vitro [1]): 76.8 mL/min/kg; half-life at 0.08 µM ([2]; liver microsomes): 36 min |
| COc1ccc(CCCNC(C)Cc2ccc([N+](=O)[O-])cc2)cc1 (stereo not shown) [Compound 43] | 1400 ± 400 | 8 ± 2 | – |
| OCC(Cc1ccc(F)cc1)NCCCn1cccn1 (stereo not shown) [Compound 131] | – | – | CLint scaled at 0.08 µM (in vitro [1]): 139 mL/min/kg; half-life at 0.08 µM ([2]; liver microsomes): 18 min |
| CC(Cc1ccc(F)cc1)NCCCc1ccccc1 (stereo not shown) [Compound 39] | 1300 ± 300 | 10 ± 0.2 | – |
| OCC(Cc1ccc(F)cc1)NCCCc1ccc(Br)cc1 (stereo not shown) [Compound 155] | – | – | CLint scaled at 0.08 µM (in vitro [1]): > 450 mL/min/kg; half-life at 0.08 µM ([2]; liver microsomes): < 6 min |
| FCC(Cc1ccc(F)cc1)NCCCc1ccncc1 (stereo not shown) [Compound 143] | – | – | half-life at 0.08 µM ([4]; pooled liver microsomes): 30 min; CLint scaled at 0.08 µM (in vitro [5]): 98.1 mL/min/kg |
| OCC(Cc1ccc(F)cc1)NCCCc1ccncc1 (stereo not shown) [Compound 129] | – | – | half-life at 0.08 µM ([4]; pooled liver microsomes): > 240 min; CLint scaled at 0.08 µM (in vitro [5]): < 5.2 mL/min/kg |
| Fc1ccc(CCCNC(Cc2ccc(F)cc2)C(F)F)cc1 (stereo not shown) [Compound 81] | – | – | CLint scaled at 0.08 µM (in vitro [1]): 83.2 mL/min/kg; half-life at 0.08 µM ([2]; liver microsomes): 36 min; Ki (VMAT2 [3]; [7]): 386 ± 194 nM |
| CC(Cc1ccccc1)N(C)CCc1ccccc1 (stereo not shown) [Compound 2] | 7530 ± 2160 | 510 ± 100 | – |
| COc1ccc(CCCNC(C)CCc2ccccc2)cc1 (stereo not shown) [Compound 52] | 3200 ± 100 | 26 ± 2 | – |
| O=[N+]([O-])c1ccc(CCCNC(CF)Cc2ccc(F)cc2)cc1 (stereo not shown) [Compound 124] | – | – | CLint scaled at 0.08 µM (in vitro [1]): 116 mL/min/kg; half-life at 0.08 µM ([2]; rat liver microsomes): 24 min |
| FCC(Cc1ccc(F)cc1)NCCCc1ccnc2ccccc12 (stereo not shown) [Compound 148] | – | – | Ki (hERG channel; [8]): 4700 ± 373 nM; CLint scaled at 0.08 µM (in vitro [1]): > 400 mL/min/kg; half-life at 0.08 µM ([2]; liver microsomes): < 6 min; Ki (VMAT2 [3]; [7]): 70.3 ± 13 nM |
| CC(CCc1ccccc1)NCCCc1ccccc1 (stereo not shown) [Compound 50] | 4810 ± 1130 | 50 ± 12 | – |
| C[C@@H](Cc1ccccc1)NCCCc1ccccc1 [Compound 6] | 750 ± 140 | 65 ± 4 | – |
| COc1ccc(CC(C)NCCCc2ccccc2)cc1 (stereo not shown) [Compound 26] | 1270 ± 90 | 22 ± 3 | – |
| CC(Cc1ccc([N+](=O)[O-])cc1)NCCc1ccccc1 (stereo not shown) [Compound 41] | 5100 ± 1200 | 60 ± 7 | – |
| CC(Cc1ccccc1)NCCc1ccc(O)cc1 (stereo not shown) [Compound 21] | 1500 ± 200 | 120 ± 10 | – |
| FCC(Cc1ccc(-c2cccnc2)cc1)NCCCc1ccc(F)cc1 (stereo not shown) [Compound 83] | – | – | Ki (hERG channel; [8]): 6750 ± 3620 nM; CLint scaled at 0.08 µM (in vitro [1]): 113 mL/min/kg; half-life at 0.08 µM ([2]; liver microsomes): 24 min; Ki (VMAT2 [3]; [7]): 27.7 ± 13.9 nM |

| Compound | Ki (VMAT2 [6]) [nM] | Ki (VMAT2 [3]; [9]) [nM] | other results |
| --- | --- | --- | --- |
| COc1ccc(CCC(C)NCCCc2ccccc2)cc1 (stereo not shown) [Compound 32] | 4700 ± 400 | 30 ± 2 | – |
| CC(Cc1ccc([N+](=O)[O-])cc1)NCCCc1ccccc1 (stereo not shown) [Compound 42] | 2000 ± 300 | 13 ± 4 | – |
| CC(Cc1ccccc1)NCCc1ccc(OCc2ccccc2)c(OCc2ccccc2)c1 (stereo not shown) [Compound 22] | 2000 ± 100 | 120 ± 1 | – |
| COc1ccc(CCC(C)NCCc2ccc(Br)cc2)cc1 (stereo not shown) [Compound 34] | 870 ± 30 | 10 ± 4 | – |
| CC(Cc1ccc(O)cc1)NCCCc1ccccc1 (stereo not shown) [Compound 37] | 820 ± 270 | 33 ± 8 | – |
| COc1ccc(CC(C)NCCCCc2ccccc2)cc1OC (stereo not shown) [Compound 47] | 1100 ± 100 | 29 ± 11 | – |
| CC(Cc1ccccc1)NCCCc1ccccc1 (stereo not shown) [Compound 4] | 1130 ± 310 | 7 ± 2 | – |
| CC(Cc1ccc(NC=O)cc1)N(C=O)CCCc1ccccc1 (stereo not shown) [Compound 75] | – | – | half-life at 0.08 µM ([4]; pooled liver microsomes): 12 min; CLint scaled at 0.08 µM (in vitro [5]): 121 mL/min/kg; Ki (VMAT2 [3]; [7]): 22700 ± 432 nM |
| Nc1ccc(CC(CF)NCCCc2ccc(F)cc2)cc1 (stereo not shown) [Compound 79, [N-3-(4-fluorophenyl)-propan-1-yl]-3-(4-aminophenyl)-1-fluoro-2-propylamine] | – | – | Ki (hERG channel; [8]): 3440 ± 983 nM; CLint scaled at 0.08 µM (in vitro [1]): 21.1 mL/min/kg; half-life at 0.08 µM ([2]; liver microsomes): 132 min; Ki (VMAT2 [3]; [7]): 19.8 ± 9.29 nM |
| FCC(Cc1ccc(-c2cccnc2)cc1)NCCCc1ccc(F)cc1 (stereo not shown) [Compound 84] | – | – | Microsomal stability assays: Half-life [4]: 6 min; CLint scaled at 0.08 µM (in vitro [5]): 173 mL/min/kg |
| FCC(Cc1ccc(-c2cncnc2)cc1)NCCCc1ccc(F)cc1 (stereo not shown) [Compound 68] | – | – | Ki (hERG channel; [8]): 633 ± 46.3 nM; half-life at 0.08 µM ([4]; pooled liver microsomes): < 6 min; CLint scaled at 0.08 µM (in vitro [5]): > 400 mL/min/kg; Ki (VMAT2 [3]; [7]): 5.53 ± 0.567 nM |
| CC(Cc1ccccc1)NCCc1ccccc1 (stereo not shown) [Compound 1] | 7700 ± 1250 | 63 ± 5 | – |
| CC(CCc1ccccc1)NCCc1ccccc1 (stereo not shown) [Compound 48] | 1600 ± 330 | 50 ± 4 | – |
| C[C@H](Cc1ccccc1)NCCCc1ccccc1 [Compound 5] | 910 ± 590 | 6 ± 1 | – |
| CC(Cc1ccccc1)N(C)CCCc1ccccc1 (stereo not shown) [Compound 7] | 1560 ± 470 | 96 ± 10 | – |
| CC(Cc1ccccc1)NCCCCCc1ccccc1 (stereo not shown) [Compound 17] | 630 | 14 ± 1 | – |
| COc1ccc(CC(C)NCCc2ccccc2)cc1 (stereo not shown) [Compound 24] | 3770 ± 990 | 74 ± 2 | – |
| COc1ccc(CCNC(C)CCc2ccc(OC)cc2)cc1 (stereo not shown) [Compound 33] | 1500 ± 200 | 60 ± 7 | – |
| CC(Cc1ccc(Br)cc1)NCCOc1ccccc1 (stereo not shown) [Compound 20] | 2000 ± 100 | 13 ± 9 | – |
| COc1ccc(CCCNC(C)Cc2ccc(F)cc2)cc1 (stereo not shown) [Compound 40] | 1700 ± 400 | 17 ± 3 | – |
| OCC(Cc1ccc(F)cc1)NCCCc1ccc(Br)cc1 (stereo not shown) [Compound 154] | – | – | half-life at 0.08 µM ([4]; pooled liver microsomes): > 240 min; CLint scaled at 0.08 µM (in vitro [5]): < 5.2 mL/min/kg; Ki (VMAT2 [3]; [7]): 69.1 ± 13.6 nM |
| COc1ccc(CC(C)N(C)CCc2ccccc2)cc1 (stereo not shown) [Compound 25] | 11900 ± 1840 | 460 ± 75 | – |
| COc1ccc(CCC(C)NCCc2ccccc2)cc1 (stereo not shown) [Compound 31] | 2400 ± 100 | 62 ± 29 | – |
| CC(CCc1ccccc1)N(C)CCCc1ccccc1 (stereo not shown) [Compound 51] | 17200 ± 6330 | 360 ± 34 | – |
| CC(CCc1ccccc1)N(C)CCc1ccccc1 (stereo not shown) [Compound 49] | 29800 ± 11200 | 84 ± 4 | – |
| CC(Cc1ccccc1)NCCCCc1ccccc1 (stereo not shown) [Compound 15] | 190 ± 20 | 3 ± 2 | – |
| COc1ccc(CCCNC(C)Cc2ccc(OC)cc2)cc1 (stereo not shown) [Compound 29] | 410 ± 140 | 11 ± 2 | – |
